Results from PubChem BioAssay AID2060347 (Molecular Pharmacology Branch, DTP, NCI, 2025).
Several values for one entry are separate records, joined by “and”; a condition that tells them apart may be missing. Identical values can stand only once.

Tested on: 817829-284-R-J1-PDC spheroids with HUVEC/MSC, viability
Assay: Anticancer human tumor 817829-284-R-J1-PDC patient-derived colon adenocarcinoma cell line growth inhibition [TAK]
Conditions: for viability, T/C: stronger effect = lower value
Description: Combinatorial screen of targeted agents with TAK-243 and ipatasertib in multi-cell type tumor spheroids
A high-throughput screen of multi-cell type tumor spheroids was designed to identify active combinations of targeted small molecules and TAK-243 or ipatasertib. Complex spheroids include a stromal component modeled by human endothelial cells (HUVEC) and fibroblasts modeled by human mesenchymal stem cells (MSCs). The concentration ranges selected for each drug and investigational agent were based upon clinically achievable concentrations if the clinical Cmax of the agent was known.
Compounds. The drugs and investigational agents: TAK-243 (785004), ipatasertib (767898), everolimus (733504), selumetinib (741078), bortezomib (756655), trametinib (758246), ixazomib (758254), vemurafenib (761431), dabrafenib (764134), sapanisertib (764658), alpelisib (765974), and copanlisib (816437), were obtained from the National Cancer Institute (NCI) Developmental Therapeutics Program Chemical Repository. The FDA-approved anticancer drug set is available from the NCI Developmental Therapeutics Program. […] The stock solutions were prepared in dimethyl sulfoxide (DMSO, Sigma-Aldrich, St. Louis, MO, cat. D2650) at 800-fold the tested concentration and stored at -70 degrees C prior to their use. All drugs and investigational agents were tested over a range starting from a high concentration at or near the clinical Cmax and decreasing in half-log increments. If the clinical Cmax for an agent had not been determined, the highest concentration tested was 10 microM.
NCI60 Cell Culture. NCI60 cell lines were obtained from the NCI Developmental Therapeutics Program Tumor Repository. For each lot of cells, the Repository performed Applied Biosystems AmpFLSTR Identifiler testing with PCR amplification to confirm consistency with the published Identifier STR profile for each cell line. Cells were kept in continuous culture for no more than 20 passages. The optimal seeding densities for each of the cell lines at each time point assessed were determined prior to performing the concentration response studies. Briefly, the NCI60 human tumor lines were grown as monolayers in RPMI 1640 medium supplemented with 10% FBS and 2 mmol/L L-glutamine.
An additional 2 lines were from the NCI60 cell line panel including melanomas, MALME-3M and SK-MEL-2. Pooled donor human umbilical vein endothelial cells (HUVEC, Lonza, cat. CC-2519) and human mesenchymal stem cells (hMSC, Lonza, cat. PT-2501) were purchased from Lonza (Walkersville, MD).
PDMR cell lines were grown in complete medium (DC medium): Dulbecco's modified Eagle's medium (DMEM)/F12 supplemented with 5% fetal bovine serum (FBS), 2 mM L-glutamine, 100 U/mL penicillin and 100 µg/ml streptomycin, 0.4 µg/ml hydrocortisone, 10 ng/ml epidermal growth factor (EGF) recombinant human protein, 24 µg/mL adenine, and 0.1 mg/mL primocin. During culture from frozen stock vials, PDMR cells were cultured in the same medium containing 10 µM Y-27632 (see Table 3). The PDCs were cultured in complete DMEM/F12 media without 10 microM Y-27632 dihydrochloride for at least two passages prior to the screen. The pooled donor HUVEC and hMSC were cultured in endothelial cell growth medium 2 (PromoCell, Heidelberg, Germany, cat. C-22011) and mesenchymal stem cell growth medium 2 (PromoCell, cat. C-28009), respectively. For all experiments, HUVEC and hMSC were used at passages </=5.
For the pre-screen, cell seeding densities were determined from a titration spanning the range from 5,000 to 313 cells per well. The mct-spheroids including 60% malignant cells, 25% HUVEC and 15% MSC dispensed as a mixture into U-bottom Ultra-Low Attachment 384-well plates (Corning, NY)
High-throughput Drug Combination Screening.
Prior to their inoculation into 384-well plates, malignant cells, HUVEC, and hMSC were removed from T flasks using TrypLE express (Thermo Fisher Scientific, cat. 12605036) and harvested by centrifugation for 5 min at 233 x g. […]

[1] = curve of first compound, second compound 0.3 µM
[2] = curve of first compound, second compound 0.949 µM
[3] = curve of first compound, second compound 3 µM
[4] = curve of first compound, second compound 9.49 µM
[5] = curve of first compound, second compound 30 µM

CC(C)CC(NC(=O)CNC(=O)c1cc(Cl)ccc1Cl)B1OC(=O)CC(CC(=O)O)(C(=O)O)O1 (centres undefined) + CC(C)NCC(C(=O)N1CCN(c2ncnc3c2C(C)CC3O)CC1)c1ccc(Cl)cc1
IC50 [1]: 15.9 nM | IC50 [2]: < 0.316 nM | IC50 [3]: < 0.316 nM | IC50 [4]: < 0.316 nM | IC50 [5]: < 0.316 nM | viability, T/C (second compound 0.3 µM, first compound 0.000316 µM): 103% | viability, T/C (second compound 0.3 µM, first compound 0.001 µM): 93.4% | viability, T/C (second compound 0.3 µM, first compound 0.00316 µM): 82.4% | viability, T/C (second compound 0.3 µM, first compound 0.01 µM): 81% | viability, T/C (second compound 0.3 µM, first compound 0.0316 µM): 4.01% | viability, T/C (second compound 0.3 µM, first compound 0.1 µM): 0.25% | viability, T/C (second compound 0.949 µM, first compound 0.000316 µM): 33.5% | viability, T/C (second compound 0.949 µM, first compound 0.001 µM): 22.1% | viability, T/C (second compound 0.949 µM, first compound 0.00316 µM): 30.2% | viability, T/C (second compound 0.949 µM, first compound 0.01 µM): 25% | viability, T/C (second compound 0.949 µM, first compound 0.0316 µM): 0.36% | viability, T/C (second compound 0.949 µM, first compound 0.1 µM): 0.13% | viability, T/C (second compound 3 µM, first compound 0.000316 µM): 10.5% | viability, T/C (second compound 3 µM, first compound 0.001 µM): 10% | viability, T/C (second compound 3 µM, first compound 0.00316 µM): 10.2% | viability, T/C (second compound 3 µM, first compound 0.01 µM): 10.8% | viability, T/C (second compound 3 µM, first compound 0.0316 µM): 0.42% | viability, T/C (second compound 3 µM, first compound 0.1 µM): 0.12% | viability, T/C (second compound 9.49 µM, first compound 0.000316 µM): 5.98% | viability, T/C (second compound 9.49 µM, first compound 0.001 µM): 6.67% | viability, T/C (second compound 9.49 µM, first compound 0.00316 µM): 6.96% | viability, T/C (second compound 9.49 µM, first compound 0.01 µM): 6.39% | viability, T/C (second compound 9.49 µM, first compound 0.0316 µM): 0.53% | viability, T/C (second compound 9.49 µM, first compound 0.1 µM): 0.12% | viability, T/C (second compound 30 µM, first compound 0.000316 µM): 5.15% | viability, T/C (second compound 30 µM, first compound 0.001 µM): 4.38% | viability, T/C (second compound 30 µM, first compound 0.00316 µM): 4.75% | viability, T/C (second compound 30 µM, first compound 0.01 µM): 4.63% | viability, T/C (second compound 30 µM, first compound 0.0316 µM): 0.23% | viability, T/C (second compound 30 µM, first compound 0.1 µM): 0.32%

Cn1cnc2c(F)c(Nc3ccc(Br)cc3Cl)c(C(=O)NOCCO)cc21 + CC(C)NCC(C(=O)N1CCN(c2ncnc3c2C(C)CC3O)CC1)c1ccc(Cl)cc1
IC50 [1]: 11.5 nM | IC50 [2]: < 9.49 nM | IC50 [3]: < 9.49 nM | IC50 [4]: < 9.49 nM | IC50 [5]: < 9.49 nM | viability, T/C (second compound 0.3 µM, first compound 0.00949 µM): 53.8% | viability, T/C (second compound 0.3 µM, first compound 0.03 µM): 36.5% | viability, T/C (second compound 0.3 µM, first compound 0.0949 µM): 40.4% | viability, T/C (second compound 0.3 µM, first compound 0.3 µM): 23.4% | viability, T/C (second compound 0.3 µM, first compound 0.949 µM): 17.4% | viability, T/C (second compound 0.3 µM, first compound 3 µM): 9.69% | viability, T/C (second compound 0.949 µM, first compound 0.00949 µM): 17.6% | viability, T/C (second compound 0.949 µM, first compound 0.03 µM): 15.9% | viability, T/C (second compound 0.949 µM, first compound 0.0949 µM): 13.8% | viability, T/C (second compound 0.949 µM, first compound 0.3 µM): 12.9% | viability, T/C (second compound 0.949 µM, first compound 0.949 µM): 12.6% | viability, T/C (second compound 0.949 µM, first compound 3 µM): 10.6% | viability, T/C (second compound 3 µM, first compound 0.00949 µM): 9.45% | viability, T/C (second compound 3 µM, first compound 0.03 µM): 10.2% | viability, T/C (second compound 3 µM, first compound 0.0949 µM): 8.2% | viability, T/C (second compound 3 µM, first compound 0.3 µM): 9.01% | viability, T/C (second compound 3 µM, first compound 0.949 µM): 8.23% | viability, T/C (second compound 3 µM, first compound 3 µM): 6.8% | viability, T/C (second compound 9.49 µM, first compound 0.00949 µM): 6.1% | viability, T/C (second compound 9.49 µM, first compound 0.03 µM): 6.4% | viability, T/C (second compound 9.49 µM, first compound 0.0949 µM): 5.55% | viability, T/C (second compound 9.49 µM, first compound 0.3 µM): 5.64% | viability, T/C (second compound 9.49 µM, first compound 0.949 µM): 4.81% | viability, T/C (second compound 9.49 µM, first compound 3 µM): 4.12% | viability, T/C (second compound 30 µM, first compound 0.00949 µM): 4.35% | viability, T/C (second compound 30 µM, first compound 0.03 µM): 3.94% | viability, T/C (second compound 30 µM, first compound 0.0949 µM): 3.58% | viability, T/C (second compound 30 µM, first compound 0.3 µM): 3.91% | viability, T/C (second compound 30 µM, first compound 0.949 µM): 2.71% | viability, T/C (second compound 30 µM, first compound 3 µM): 2.38%

Cn1cnc2c(F)c(Nc3ccc(Br)cc3Cl)c(C(=O)NOCCO)cc21
viability, T/C (compound 0.00949 µM): 89.3% and 94.4% | viability, T/C (compound 0.03 µM): 86.4% and 83.3% | viability, T/C (compound 0.0949 µM): 79% and 79.5% | viability, T/C (compound 0.3 µM): 72% and 66.6% | viability, T/C (compound 0.949 µM): 55.7% and 53.5% | viability, T/C (compound 3 µM): 25.6% and 20.5% | IC50 (curve of compound): 1150 nM and 953 nM

CC(C)NCC(C(=O)N1CCN(c2ncnc3c2C(C)CC3O)CC1)c1ccc(Cl)cc1 (centres undefined)
viability, T/C (compound 3 µM): 15.9% [middle of 10 runs] | viability, T/C (compound 9.49 µM): 11.2% [middle of 10 runs] | viability, T/C (compound 30 µM): 6.54% [middle of 10 runs] | IC50 (compound alone, run of 02/28/2020): 1.55 µM [middle of 6 runs] | IC50 (compound alone, run of 03/19/2020): 665 nM [middle of 4 runs]

Cc1nc(NC(=O)N2CCCC2C(N)=O)sc1-c1ccnc(C(C)(C)C(F)(F)F)c1 (centres undefined)
viability, T/C (compound 0.0316 µM): 96.8% and 102% | viability, T/C (compound 0.1 µM): 98.7% and 96.4% | viability, T/C (compound 0.316 µM): 94.8% and 94.7% | viability, T/C (compound 1 µM): 88.1% and 93% | viability, T/C (compound 3.16 µM): 79.6% and 80% | viability, T/C (compound 10 µM): 48.1% and 49.1% | IC50 (curve of compound): 9420 nM and 9840 nM
